Source: patent publication US12091425B2 (AMGEN INC., priority 2016, dated 2024)

Key:
[1] = target: T1, Mcl-1/Bim interaction, recombinant human Mcl-1 (171-327) (Homo sapiens, UniProt Q07820); test: Cell free Mcl-1: Bim Affinity Assay (Mcl-1 HTRF); assay type: binding; settings: TR-FRET, 0.1 nM Mcl-1 (171-327), 0.05 nM biotin-Bim (51-76)
T1 construct: made in house
Summary of the method: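 Compounds were mixed with the protein and a biotinylated Bim peptide spanning human residues 51-76. Plates were left overnight, then TR-FRET signal was measured. A four-parameter sigmoidal model applied to duplicate competition data gave IC50.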

[2] = tested on: OPM-2 human multiple myeloma cell line; test: Cell Viability Assay (OPM-2 10 FBS); assay type: cell-based; settings: OPM-2 cells, 16 h, CellTiter-Glo
Experimental: Cell Viability Assay (OPM-2 10 FBS)
Cells were seeded into 384-well plates at 3000 cells/well density in complete growth medium containing 10% FBS, and incubated for 16 h with serially diluted test compounds in a 37° C. incubator with 5% CO2. Cell viability was tested using CellTiter-Glo® assay (Promega, Madison, WI) according to the manufacturer recommendations. Luminescence was determined using an EnVision® Multilabel plate reader 25 min after the addition of detection reagent. IC50 values were then calculated with Xlfit using a logistical 4-parameter fit model in GraphPad Prism (GraphPad Software, San Diego, CA) or in Genedata Screener® (Genedata, Basel, Switzerland).

T1 sequence (Q07820 171-327): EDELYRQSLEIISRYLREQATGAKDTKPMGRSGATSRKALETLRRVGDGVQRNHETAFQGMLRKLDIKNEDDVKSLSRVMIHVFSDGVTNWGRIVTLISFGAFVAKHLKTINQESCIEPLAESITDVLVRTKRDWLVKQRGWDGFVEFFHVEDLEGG

Structure (SMILES)	IC50 [1] [nM]	IC50 [2] [nM]	IC50 ([2]; Homo sapiens, OPM-2, 16 h) [nM]
O=C1NS(=O)(=O)[C@@H]2CCC[C@@H](/C=C/[C@H](O)[C@@H]3CC[C@H]3CN3C[C@@]4(CCCc5cc(Cl)ccc54)COc4ccc1cc43)C2 (single isomer, unassigned) [Example 105]	0.589	330	
O=C1NS(=O)(=O)[C@@H]2CCC[C@@H](CC[C@H](O)[C@@H]3CC[C@H]3CN3C[C@@]4(CCCc5cc(Cl)ccc54)COc4ccc1cc43)C2 (single isomer, unassigned) [Example 107]	0.597	17300	
CO[C@H]1/C=C/[C@@H]2CCC[C@H](C2)S(=O)(=O)NC(=O)c2ccc3c(c2)N(C[C@@H]2CC[C@H]21)C[C@@]1(CCCc2cc(Cl)ccc21)CO3 (single isomer, unassigned) [Example 108]	1.13	2250	
O=C1NS(=O)(=O)[C@@H]2CCC[C@H](/C=C/[C@H](O)[C@@H]3CC[C@H]3CN3C[C@@]4(CCCc5cc(Cl)ccc54)COc4ccc1cc43)C2 (single isomer, unassigned) [Example 109]	1.34	12200	
O=C1NS(=O)(=O)[C@H]2CCC[C@@H](/C=C/[C@H](O)[C@@H]3CC[C@H]3CN3C[C@@]4(CCCc5cc(Cl)ccc54)COc4ccc1cc43)C2 (single isomer, unassigned) [Example 110]	1.34	5580	
C[C@H]1[C@H]2/C=C/[C@H](O)[C@@H]3CC[C@H]3CN3C[C@@]4(CCCc5cc(Cl)ccc54)COc4ccc(cc43)C(=O)NS(=O)(=O)[C@H]1CCC2 (single isomer, unassigned) [Example 111]	30.8		17800
CO[C@H]1/C=C/C(CO)C(C)CS(=O)(=O)NC(=O)c2ccc3c(c2)N(C[C@@H]2CC[C@H]21)C[C@@]1(CCCc2cc(Cl)ccc21)CO3 (single isomer, unassigned) [Example 126]	0.448	496	
CO[C@H]1/C=C/[C@@H](CO)C[C@H](C)S(=O)(=O)NC(=O)c2ccc3c(c2)N(C[C@@H]2CC[C@H]21)C[C@@]1(CCCc2cc(Cl)ccc21)CO3 (single isomer, unassigned) [Example 127]	0.341	1850	
COC1C=CC(CO)CC(C)S(=O)(=O)NC(=O)c2ccc3c(c2)N(CC2CCC21)CC1(CCCc2cc(Cl)ccc21)CO3 (single isomer, unassigned) [Example 128]	0.603		2520
C[C@@]12C/C=C/[C@H](O)[C@@H]3CC[C@H]3CN3C[C@@]4(CCCc5cc(Cl)ccc54)COc4ccc(cc43)C(=O)NS(=O)(=O)[C@H]1CCC2 (single isomer, unassigned) [Example 130]	0.386	228	
C[C@@]12C/C=C/[C@H](O)[C@@H]3CC[C@H]3CN3C[C@@]4(CCCc5cc(Cl)ccc54)COc4ccc(cc43)C(=O)NS(=O)(=O)[C@H]1CCC2 (single isomer, unassigned) [Example 131]	1.83	1820	
CC12CC=CC(O)C3CCC3CN3CC4(CCCc5cc(Cl)ccc54)COc4ccc(cc43)C(=O)NS(=O)(=O)C1CCC2 (single isomer, unassigned) [Example 133]	2		2750
C[C@H]1C/C=C\[C@H](O)[C@@H]2CC[C@H]2CN2C[C@@]3(CCCc4cc(Cl)ccc43)COc3ccc(cc32)C(=O)NS(=O)(=O)[C@H]1C[C@H]1CCCO1 (single isomer, unassigned) [Example 136]	0.259		130
O=C1NS(=O)(=O)[C@H](C2CC2)CC/C=C/[C@H](O)[C@@H]2CC[C@H]2CN2C[C@@]3(CCCc4cc(Cl)ccc43)COc3ccc1cc32 (single isomer, unassigned) [Example 148]	0.285	458	
O=C1NS(=O)(=O)[C@H](C2CC2)CC/C=C/[C@H](O)[C@@H]2CC[C@H]2CN2C[C@@]3(CCCc4cc(Cl)ccc43)COc3ccc1cc32 (single isomer, unassigned) [Example 149]	0.77	1330	
C[C@@H]1CC(=O)NC[C@@H]2CC[C@H]2CN2C[C@@]3(CCCc4cc(Cl)ccc43)COc3ccc(cc32)C(=O)NS(=O)(=O)[C@@H]1C (single isomer, unassigned) [Example 151]	3.56	9170	
CC1CC(=O)N(C)CC2CCC2CN2CC3(CCCc4cc(Cl)ccc43)COc3ccc(cc32)C(=O)NS(=O)(=O)C1C (single isomer, unassigned) [Example 152]	19.6		29200
CC(C)(C)S(=O)(=O)CC[C@H]1CC/C=C/[C@H](O)[C@@H]2CC[C@H]2CN2C[C@@]3(CCCc4cc(Cl)ccc43)COc3ccc(cc32)C(=O)NS1(=O)=O (single isomer, unassigned) [Example 155]	0.846	11600	

Structure (SMILES)	IC50 [1] [nM]	IC50 [2] [nM]	IC50 ([2]; Homo sapiens, OPM-2, 16 h) [nM]
CO[C@H]1/C=C/CC[C@@H](CCS(=O)(=O)C(C)(C)C)S(=O)(=O)NC(=O)c2ccc3c(c2)N(C[C@@H]2CC[C@H]21)C[C@@]1(CCCc2cc(Cl)ccc21)CO3 (single isomer, unassigned) [Example 156]	0.831	266	
COC(=O)[C@@H]1CC/C=C/[C@H](O)[C@@H]2CC[C@H]2CN2C[C@@]3(CCCc4cc(Cl)ccc43)COc3ccc(cc32)C(=O)NS1(=O)=O (single isomer, unassigned) [Example 160]	0.397	5300	
COC(=O)CO[C@H]1/C=C/CC[C@@H](C2CC2)S(=O)(=O)NC(=O)c2ccc3c(c2)N(C[C@@H]2CC[C@H]21)C[C@@]1(CCCc2cc(Cl)ccc21)CO3 (single isomer, unassigned) [Example 161]	1.31	86	
O=C1NS(=O)(=O)[C@@H](CCS(=O)(=O)Cc2ccccc2)CC/C=C/[C@H](O)[C@@H]2CC[C@H]2CN2C[C@@]3(CCCc4cc(Cl)ccc43)COc3ccc1cc32 (single isomer, unassigned) [Example 162]	0.979	8400	
O=C1NS(=O)(=O)[C@@H](CCS(=O)(=O)Cc2ccccc2)CC/C=C/[C@H](O)[C@@H]2CC[C@H]2CN2C[C@@]3(CCCc4cc(Cl)ccc43)COc3ccc1cc32 (single isomer, unassigned) [Example 163]	5.07	18900	
C[C@H]1/C=C/[C@H](O)[C@@H]2CC[C@H]2CN2C[C@@]3(CCCc4cc(Cl)ccc43)COc3ccc(cc32)C(=O)NS(=O)(=O)C1 (single isomer, unassigned) [Example 164]	1.44	21900	
CC1C=CC(O)C2CCC2CN2CC3(CCCc4cc(Cl)ccc43)COc3ccc(cc32)C(=O)NS(=O)(=O)C1 (single isomer, unassigned) [Example 165]	3.8		25000
C[C@@H]1[C@@H](C)/C=C/[C@H](O)[C@@H]2CC[C@H]2CN2C[C@@]3(CCCc4cc(Cl)ccc43)COc3ccc(cc32)C(=O)NS1(=O)=O (single isomer, unassigned) [Example 166]	0.418	2070	
O=C1NS(=O)(=O)[C@H](CC2CCOCC2)CC/C=C/[C@H](O)[C@@H]2CC[C@H]2CN2C[C@@]3(CCCc4cc(Cl)ccc43)COc3ccc1cc32 (single isomer, unassigned) [Example 186]	7.91	4660	
O=C1NS(=O)(=O)[C@H](CC2CCOCC2)CC/C=C/[C@H](O)[C@@H]2CC[C@H]2CN2C[C@@]3(CCCc4cc(Cl)ccc43)COc3ccc1cc32 (single isomer, unassigned) [Example 187]	0.248	426	
CC[C@@H]1CC[C@H](O)/C=C/[C@@H]2CC[C@H]2CN2C[C@@]3(CCCc4cc(Cl)ccc43)COc3ccc(cc32)C(=O)NS1(=O)=O (single isomer, unassigned) [Example 197]	1.12	2600	
CCC1CCC(OC)C=CC2CCC2CN2CC3(CCCc4cc(Cl)ccc43)COc3ccc(cc32)C(=O)NS1(=O)=O (single isomer, unassigned) [Example 199]	6.04		10200
CC1CC=CC(O)C2CCC2CN2CC3(CCCc4cc(Cl)ccc43)COc3ccc(cc32)C(=O)NS(=O)(=O)C1 (single isomer, unassigned) [Example 231]	45.2		23100
O=C1NS(=O)(=O)CCC/C(Br)=C\[C@@H](O)[C@@H]2CC[C@H]2CN2C[C@@]3(CCCc4cc(Cl)ccc43)COc3ccc1cc32 (single isomer, unassigned) [Example 236]	6.42	13700	
CC1CCCS(=O)(=O)NC(=O)c2ccc3c(c2)N(CC2CCC2C(O)C1)CC1(CCCc2cc(Cl)ccc21)CO3 (single isomer, unassigned) [Example 240]	2.54		3730
C[C@H]1CCCS(=O)(=O)NC(=O)c2ccc3c(c2)N(C[C@@H]2CC[C@H]2[C@@H](O)C1)C[C@@]1(CCCc2cc(Cl)ccc21)CO3 (single isomer, unassigned) [Example 241]	4.85	7390	
C[C@H]1CCCS(=O)(=O)NC(=O)c2ccc3c(c2)N(C[C@@H]2CC[C@H]2[C@@H](O)C1)C[C@@]1(CCCc2cc(Cl)ccc21)CO3 (single isomer, unassigned) [Example 242]	3.05	467	
C[C@H]1CCCS(=O)(=O)NC(=O)c2ccc3c(c2)N(C[C@@H]2CC[C@H]2[C@@H](O)C1)C[C@@]1(CCCc2cc(Cl)ccc21)CO3 (single isomer, unassigned) [Example 243]	10.9	12100	
